Reference: patent US20220257597A1, “Methods of Administering Elagolix” (AbbVie Inc., priority 2021, published 2022)
“Also recorded” adds a separate entry of the source.

Assays:
[1] = test system: CYP3A4; test: In vitro studies: CYP3A induction; assay type: in vitro ADME
[2] = Embryofetal development study in the rabbit
Protocol: (§1) Embryofetal development studies were conducted in the rat and rabbit. Elagolix was administered by oral gavage to pregnant rats (25 animals/dose) at doses of 0, 300, 600 and 1200 mg/kg/day and to rabbits (20 animals/dose) at doses of 0, 100, 150, and 200 mg/kg/day, during the period of organogenesis (gestation day 6-17 in the rat and gestation day 7-20 in the rabbit).

[3] = Pre- and postnatal development study in rats; assay type: in vivo, rat; conditions: for maternal plasma concentration relative to maximal elagolix concentration (Cmax) in humans at the MRHD: lactation day 21
Protocol: In a pre- and postnatal development study in rats, elagolix was given in the diet to achieve doses of 0, 100 and 300 mg/kg/day (25 per dose group) from gestation day 6 to lactation day 20. […] Pup survival was decreased from birth to postnatal day 4. […] Smaller body size and effect on startle response were associated with lower pup weights at 300 mg/kg/day. Post-weaning growth, development and behavioral endpoints were unaffected.

[4] = target: CYP2C19 (Homo sapiens, UniProt P33261); test: In vitro studies: CYP2C19 inhibition; assay type: in vitro ADME
Sequence of CYP2C19 (P33261 whole entry): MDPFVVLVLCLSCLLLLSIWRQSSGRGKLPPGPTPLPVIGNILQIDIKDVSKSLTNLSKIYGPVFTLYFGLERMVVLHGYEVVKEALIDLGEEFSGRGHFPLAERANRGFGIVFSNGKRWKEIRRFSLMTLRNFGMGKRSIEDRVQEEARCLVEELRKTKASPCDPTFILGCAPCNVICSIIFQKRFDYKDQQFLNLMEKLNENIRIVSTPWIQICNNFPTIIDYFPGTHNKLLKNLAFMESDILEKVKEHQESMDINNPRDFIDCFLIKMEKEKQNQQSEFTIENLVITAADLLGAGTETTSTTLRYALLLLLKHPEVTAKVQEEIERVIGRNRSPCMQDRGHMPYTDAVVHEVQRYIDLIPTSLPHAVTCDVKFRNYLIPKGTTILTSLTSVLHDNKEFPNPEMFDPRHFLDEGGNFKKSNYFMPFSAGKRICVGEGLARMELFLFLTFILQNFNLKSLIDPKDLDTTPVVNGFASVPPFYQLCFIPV

[5] = Drug-drug interaction study: effect of multiple doses of elagolix sodium on pharmacokinetics of bupropion (CYP2B6 substrate) and OH-bupropion
Protocol: Subjects: Twenty four (24) adult premenopausal women in generally good health participated in this study.
Elagolix 300 mg BID (as 300 mg immediate release tablets) was administered in the morning and evening on days 1 through 14 in period 2. […] No food was consumed for 2 hours prior to the evening doses of elagolix continuing through 2 hours after. The doses of elagolix were separated by approximately 12 hours.
Individual PK parameters (peak concentration [Cmax] and area under the concentration-time curve [AUC]) were estimated using noncompartmental methods.
Central value ratios (90% confidence intervals) for Cmax, AUC, and metabolite to parent ratios (MPRs) (day 11, period 2 vs. day 1, period 1) were calculated to assess the DDIs. Safety was evaluated through assessment of adverse events, vital signs, electrocardiogram, and clinical laboratory tests.
Adverse events (AEs) were monitored throughout the DDI study. Additional safety evaluations included monitoring of physical examinations, vital signs, electrocardiogram variables, and clinical laboratory values were assessed

[6] = target: efflux transporter P-glycoprotein (P-gp) (Homo sapiens, UniProt P08183); test: P-glycoprotein inhibition; assay type: in vitro ADME
Sequence of efflux transporter P-glycoprotein (P-gp) (P08183 whole entry): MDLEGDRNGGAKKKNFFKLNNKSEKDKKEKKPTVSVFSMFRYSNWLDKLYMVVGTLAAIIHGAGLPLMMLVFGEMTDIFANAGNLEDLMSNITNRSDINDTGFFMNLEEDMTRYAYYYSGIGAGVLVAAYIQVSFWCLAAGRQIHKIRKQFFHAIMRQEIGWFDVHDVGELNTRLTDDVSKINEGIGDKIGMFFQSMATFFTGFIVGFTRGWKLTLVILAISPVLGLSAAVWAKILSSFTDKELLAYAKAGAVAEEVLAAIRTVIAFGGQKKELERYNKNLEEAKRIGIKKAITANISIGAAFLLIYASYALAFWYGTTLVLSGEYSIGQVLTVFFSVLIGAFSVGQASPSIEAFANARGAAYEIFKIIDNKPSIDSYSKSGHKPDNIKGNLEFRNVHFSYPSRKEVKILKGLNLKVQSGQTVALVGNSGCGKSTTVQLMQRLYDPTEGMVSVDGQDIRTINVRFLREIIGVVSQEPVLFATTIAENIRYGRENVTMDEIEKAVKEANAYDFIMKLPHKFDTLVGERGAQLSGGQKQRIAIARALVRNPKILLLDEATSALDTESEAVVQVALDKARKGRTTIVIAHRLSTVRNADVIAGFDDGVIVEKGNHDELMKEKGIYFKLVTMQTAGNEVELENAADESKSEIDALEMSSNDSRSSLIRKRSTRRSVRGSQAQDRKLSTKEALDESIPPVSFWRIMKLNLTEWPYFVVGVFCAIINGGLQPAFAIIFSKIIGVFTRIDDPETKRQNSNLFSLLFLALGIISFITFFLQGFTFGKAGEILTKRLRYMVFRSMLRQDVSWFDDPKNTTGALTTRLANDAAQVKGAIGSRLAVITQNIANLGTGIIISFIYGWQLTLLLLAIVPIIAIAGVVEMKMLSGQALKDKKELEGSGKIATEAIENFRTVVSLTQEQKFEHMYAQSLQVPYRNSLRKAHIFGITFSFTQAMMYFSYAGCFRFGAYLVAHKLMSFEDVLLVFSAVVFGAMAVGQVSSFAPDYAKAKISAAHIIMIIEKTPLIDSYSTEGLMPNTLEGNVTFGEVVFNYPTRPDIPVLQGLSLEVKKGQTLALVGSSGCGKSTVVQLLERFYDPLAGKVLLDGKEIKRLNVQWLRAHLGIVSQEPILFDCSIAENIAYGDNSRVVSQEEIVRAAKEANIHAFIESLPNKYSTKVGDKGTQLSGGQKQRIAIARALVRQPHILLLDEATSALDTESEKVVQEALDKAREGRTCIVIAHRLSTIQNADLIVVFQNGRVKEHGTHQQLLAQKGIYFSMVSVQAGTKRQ

[7] = Embryofetal development study in the rat; assay type: in vivo
Protocol: as §1

[8] = target: T1, rat gonadotropin-releasing hormone (GnRH) receptor (Rattus norvegicus, UniProt P30969); test: Binding to rat versus human GnRH receptor; conditions: rat vs human GnRH receptor
T1 sequence (P30969 1-327): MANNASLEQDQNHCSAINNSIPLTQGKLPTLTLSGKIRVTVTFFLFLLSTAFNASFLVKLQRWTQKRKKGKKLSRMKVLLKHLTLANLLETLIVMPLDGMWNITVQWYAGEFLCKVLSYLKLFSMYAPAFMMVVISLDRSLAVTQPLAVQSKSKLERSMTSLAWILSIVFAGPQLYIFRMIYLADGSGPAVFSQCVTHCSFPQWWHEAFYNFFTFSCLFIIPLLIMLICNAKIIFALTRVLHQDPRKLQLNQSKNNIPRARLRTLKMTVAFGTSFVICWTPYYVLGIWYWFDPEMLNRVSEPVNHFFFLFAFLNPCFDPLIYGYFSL

[9] = target: P-gp (Homo sapiens, UniProt P08183); test: Substrate of P-gp; assay type: in vitro ADME
Sequence of P-gp (P08183 whole entry): as the sequence (P08183 whole entry) above

[10] = test system: CYP3A; test: Substrate of / metabolism by CYP3A; assay type: in vitro ADME
[11] = target: T2, OATP1B1 transporter protein (Homo sapiens, UniProt Q9Y6L6, V174A); test: Pharmacogenomics: elagolix plasma concentrations by SLCO1B1 521 genotype; assay type: in vivo; conditions: women with two reduced function alleles
T2 construct: Hepatic uptake of elagolix involves the OATP1B1 transporter protein; from tissue; host or cells: liver of patients (in vivo)
T2 sequence (Q9Y6L6 1-691 V174A): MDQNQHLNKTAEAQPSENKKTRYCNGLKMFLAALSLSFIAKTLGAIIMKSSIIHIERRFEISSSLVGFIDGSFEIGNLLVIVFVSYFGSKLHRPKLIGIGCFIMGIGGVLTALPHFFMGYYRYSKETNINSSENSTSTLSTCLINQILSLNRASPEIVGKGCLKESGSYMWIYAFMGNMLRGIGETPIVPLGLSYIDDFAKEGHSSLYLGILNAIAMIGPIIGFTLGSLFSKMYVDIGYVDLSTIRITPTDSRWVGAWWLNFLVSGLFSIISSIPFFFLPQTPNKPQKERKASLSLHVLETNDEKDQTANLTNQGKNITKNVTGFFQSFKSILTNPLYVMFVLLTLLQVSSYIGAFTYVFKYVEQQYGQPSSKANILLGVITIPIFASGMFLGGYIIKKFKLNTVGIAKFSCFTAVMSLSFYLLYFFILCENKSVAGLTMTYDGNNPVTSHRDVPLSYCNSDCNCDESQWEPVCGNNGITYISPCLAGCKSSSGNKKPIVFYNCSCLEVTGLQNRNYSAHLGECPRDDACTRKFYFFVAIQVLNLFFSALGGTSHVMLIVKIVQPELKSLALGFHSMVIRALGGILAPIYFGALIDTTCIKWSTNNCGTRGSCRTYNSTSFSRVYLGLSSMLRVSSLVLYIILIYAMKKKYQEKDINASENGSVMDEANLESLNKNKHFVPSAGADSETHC
Excerpt: Hepatic uptake of elagolix involves the OATP1B1 transporter protein. Higher plasma concentrations of elagolix have been observed in patients who have two reduced function alleles of the gene that encodes OATP1B1 (SLCO1B1 521T>C) (these patients are likely to have reduced hepatic uptake of elagolix; and thus, higher plasma elagolix concentrations). The frequency of this SLCO1B1 521 C/C genotype is generally less than 5% in most racial/ethnic groups. Women with this genotype are expected to have approximately 2-fold higher elagolix mean concentrations compared to women with normal transporter function (i.e., SLCO1B1 521T/T genotype). Adverse effects of elagolix have not been fully evaluated in subjects who have two reduced function alleles of the gene that encodes OATP1B1 (SLCO1B1 521T>C).

[12] = pregnant rabbits, 150 mg/kg/day

With `COc1cccc(-c2c(C)n(Cc3c(F)cccc3C(F)(F)F)c(=O)n(C[C@H](NCCCC(=O)O)c3ccccc3)c2=O)c1F` [elagolix, 4-((R)-2-[5-(2-fluoro-3-methoxy-phenyl)-3-(2-fluoro-6-trifluoromethyl-benzyl)-4-methyl-2,6-dioxo-3,6-dihydro-2H-pyrimidin-1-yl]-1-phenyl-ethylamino)-butyric acid] the “inducer of CYP3A4 / cytochrome P450 (CYP) 3A” value [1] was “weak to moderate inducer”, the “highest, maternally toxic dose with spontaneous abortions and total litter loss, as multiple of the MRHD based on AUC” value ([2]; pregnant rabbits) was 7 times the MRHD and the “findings at lower non-maternally toxic dose” value [2, 12] was “A single total litter loss”. The “non-maternally toxic dose with total litter loss, as multiple of the MRHD” value [2, 12] was 4 times the MRHD, the “findings at the highest, maternally toxic dose” value ([2]; pregnant rabbits, oral gavage, gestation day 7-20) was “three spontaneous abortions and a single total litter loss” and the “fetal malformations / structural abnormalities” value ([2]; rabbit, any dose level tested) was “no structural abnormalities; also recorded: No fetal malformations”. The “post-weaning growth, development and behavioral endpoints” value [3] was “unaffected”, the “maternal plasma concentration relative to maximal elagolix concentration (Cmax) in humans at the MRHD” value ([3]; 100 mg/kg/day) was 0.04 fold and the “litter findings at the highest dose” value ([3]; 300 mg/kg/day) was “two dams had total litter loss, and one failed to deliver”. For the same compound, the “maternal plasma concentration relative to maximal elagolix concentration (Cmax) in humans at the MRHD” value ([3]; 300 mg/kg/day) was 0.1 fold, the “pup birth weights and body weight gains” value ([3]; 300 mg/kg/day, pre-weaning period) was “lower birth weights and lower body weight gains” and the “pup survival from birth to postnatal day 4” value ([3]; highest dose) was “decreased”. The “inhibitor of CYP2C19” value [4] was “weak inhibitor”, the “CYP2B6 induction in the healthy volunteer study” value ([5]; elagolix 300 mg BID for 10 days) was “did not induce CYP2B6” and the “tolerability of co-administration of elagolix and bupropion” value ([5]; healthy premenopausal female subjects) was “generally well tolerated”. The “inhibitor of efflux transporter P-glycoprotein (P-gp)” value [6] was “inhibitor”, the “dose with increased post implantation losses, as multiple of the MRHD based on AUC” value ([7]; pregnant rats, mid dose group) was 12 times the MRHD and the maternal deaths ([7]; pregnant rats, oral gavage 300, 600 and 1200 mg/kg/day) was “six deaths”. The “fetal malformations / structural abnormalities” value ([7]; rat, any dose level tested) was “no structural abnormalities; also recorded: No fetal malformations”, the “binding to the rat GnRH receptor, fold less than to the human GnRH receptor” value [8] was roughly 1000 fold and the “substrate of P-gp” value [9] was “substrate”. For the same compound, the “substrate of CYP3A” value [10] was “substrate” and the “elagolix mean concentrations, SLCO1B1 521 C/C genotype compared to SLCO1B1 521T/T genotype” value [11] was “approximately 2 fold”.
